1 molecule from patent US9326972B2, “Use of phenylmethimazoles, methimazole derivatives, and tautomeric cyclic thiones for the treatment of autoimmune/inflammatory diseases associated with toll-like receptor overexpression” (Ohio University, priority 2004, dated 2016) can be followed below.

One test concerns iNOS. Nature of the test: LPS-induced iNOS mRNA in RAW 264.7 macrophages (RT-PCR). The test is classed as cell-based, mouse. The conditions noted are these: RAW 264.7, LPS 3 hours, C10 in DMSO or vehicle B. Here is the method: In macrophages NO production occurs as a result of LPS induction of iNOS (C. Bogdan, Nat Immunol, 2:907-16 (2001)) and is a process that depends on autocrine signaling by IFN-β. We used standard reverse transcriptase polymerase chain reaction to detect the inhibition of LPS induced iNOS transcription in the presence of C10 (FIG. 13A). The RAW 264.7 cells were treated with LPS in the presence of C10, its vehicle control, DMSO, or another excipient vehicle (compound B; see Table 8) for 3 hours. Table 8 establishes that C10 is effective in vivo in the mouse toxic shock model and in FRTL-5 cell assays in vitro when solubilized in water in the presence of the compound B excipient, i.e., water soluble forms of C10 are effective in both in vivo and in vitro just as C10 in DMSO. In the presence of DMSO control (FIG. 13A, lane 4) or vehicle B only (FIG. 13A, lane 5) little or no iNOS reduction was detected respectively when compared to LPS only (FIG. 13A lane 3).
Standard reverse transcriptase PCR for INOS: RNA was isolated as described above and treated with DNAse a described above. […] of DNA free RNA was then reverse transcribed with the Advantage® RT-for PCR kit (BD Biosciences, Palo Alto, Calif.) in a total volume of 20 μl. Five μl of cDNA was then amplified using ExTaq™ DNA polymerase (Takara, Madison, Wis.) in a reaction volume of 25 μl. […]

Another test deals with ApoE−/− mice. Nature of the test: Atherosclerosis in ApoE−/− mice fed a high fat diet. The format is in vivo, mouse. Details: key to CORONARY AND MYOCARDIAL VESSELS INFLAMMATION / AORTIC INFLAMMATION: ++++ for severe; + for very mild. How it is done:
C10 reduced vascular inflammation in ApoE−/− mice fed a high fat diet: C10 was given i.p. (1 mg/kg) every other day to mice for 8 weeks. Control mice received DMSO alone. Mice were sacrificed at 8 weeks and histopathology examined in different tissues as determined by hematoxylin and eosin staining. In FIG. 15, sections from the base of the aorta in C10 treated (FIG. 15, Panel A) and untreated mice (FIG. 15, Panel B) are presented as well as sections of the coronary artery vasculature in C10 treated (FIG. 15, Panel C) and untreated mice (FIG. 15, Panel D). Vessels in the myocardium were also compared in C10 treated and untreated mice. […] Similarly in Panel D, the picture is representative of long sections of the coronary arteries that were nearly fully occluded with plaque in untreated mice whereas in C10 treated mice (Panel C), coronary arteries were largely unobstructed. Further, even where lesions were evident the lumens of vessels remained patent. Vessels within the myocardium were obstructed by plaque in the absence of C10 but patent and nearly free of plaque in the mice treated with C10. Data are representative of multiple slides taken from multiple animals.
Sections of the coronary arteries and myocardium as well as the base of the aorta were compared in untreated mice vs. C10 treated mice both for extent of lesion, quality of lesion, overexpressed TLR4, overexpressed VCAM-1, and extent of inflammation and plaque. Lesions and observations were qualitatively evaluated using ++++ for severe to + for very mild. […] Evaluation was double blinded.
Experimental animals: Twenty female Apo E−/− mice (Jackson Laboratory), 5 weeks old and weighing 14.5 g (average weight), were divided in 4 groups: (1) animals treated with 10% DMSO; (2) animals treated orally with C-10 in DMSO (1 mg/kg body weight); (3) animals treated I/P with C-10 in DMSO (same dose); and (4) control animals without treatment.
The treatment was done every other day (8 week expt) or every day. The animals were fed on a Western-type diet (TD 88137 from Harlan, Teklan). […]

Another test has as its system horses. Nature of the test: Horses operated to remove necrotic bowel. The test is classed as in vivo, horse. The conditions noted are these: 2 mg/kg C10 pre-op and post-op for three days, plus antibiotics. How it is done:
Effect of Phenylmethimazole (C10) on horses subjected to operative procedures to repair necrotic bowels: A group of animals were also subjected to an operative procedure that clamped vessels in a small portion of bowel. Within 2 days, bowel necrosis and peritonitis ensued. At that point animals were re-operated to remove the necrotic bowel and treated with 2 mg/kg C10 or DMSO alone pre-op and post-op for three days. […] Both groups had the same antibiotic therapy as used above.

Where [1] appears, read: C10 1 mg/kg every other day for 8 weeks.

Marks after values point to notes of the source that are not given here.

Regarding `Cn1c(-c2ccccc2)cnc1S` [Compound C10, 5-Phenylmethimazole], the “LPS induced iNOS mRNA” value with iNOS is “strong reduction”. For the same molecule, in the test with ApoE−/− mice (setting [1]), the “AORTIC INFLAMMATION” value is given as “+*” and the “CORONARY AND MYOCARDIAL VESSELS INFLAMMATION” value is given as “+*”. Moreover, the weight gain result in the test with ApoE−/− mice (C10 orally and ip, 4 weeks) is recorded as “decreased”. Also, the “recovery after operation to remove necrotic bowel” value in the test with horses is “full recovery in all cases”.
